The numbers were not newly measured in patent US9561225B2, “Pharmaceutical formulation containing opioid agonist, opioid antagonist and gelling agent” (Purdue Pharma L.P., priority 2001, dated 2017), which cites them from elsewhere.

The conditions of series [1]: after oral administration.
In series [2] the test system is morphine-like opioid agonist / heroin effects.

For the molecule `C[C@H]1[C@H]2Cc3ccc(O)cc3[C@]1(C)CCN2CC1CC1` [cyclazocine], the duration of action in series [1] is roughly 24 h.

Consider `C=CCN1CC[C@]23c4c5ccc(O)c4O[C@H]2C(=O)CC[C@@]3(O)[C@H]1C5` [naloxone], for which, in series [2] (1 mg intravenously), the “block of the effect of 25 mg of heroin” value was “completely block”. Also, the “effect on morphine-like opioid agonist effects” value in series [2] (0.4-0.8 mg intramuscularly or intravenously in man) was “prevent or promptly reverse the effects of morphine-like opioid agonist”.

Regarding `O=C1CC[C@@]2(O)[C@H]3Cc4ccc(O)c5c4[C@@]2(CCN3CC2CC2)[C@H]1O5` [naltrexone], under “following oral administration”, the time of absorption is no more than 1 h. Further, the protein binding entry (in vivo) is given as “approximately 21%”. In series [1], the duration of action was roughly 24 h.
